We go through 3 compounds from US20060205826A1, “Method of using carotenoids in the prevention of cognitive decline and for other neuroprotection functions” (priority 2005, published 2006).

Entries after “also recorded” stand apart in the source; their conditions may differ.

Data set [1] concerns diabetic rats. Particulars: Lupien et al. (2003); cited from earlier work.
Data set [2] deals with diabetic mouse brain. Particulars: diabetic mice killed 20 days after streptozotocin administration; Saravia et al. 2004; cited from earlier work.
In data set [3] the test system is alloxan diabetic mice. Kind of data set: Electroretinogram (ERG) amplitude in diabetic mice. Format: in vivo. Particulars: lutein 100 mg/kg p.o. or insulin 500 mU/g s.c. on days 4-13. The protocol: Male albino mice were used throughout the study, housed in a environmentally regulated room on a dark-light cycle of 12 hours with free access to food and water. Principles of laboratory animal care (NIH publication no. 85-23, revised 1985) were followed, as well as specific Spanish regulations. Animals were made diabetic with a single subcutaneous injection of 200 mg alloxan/kg body weight (66 mg/ml) in 0.1 M citrate buffer, pH 4.5, at day 0 of the experiment. Control mice were injected with the same volume of vehicle also at day 0 of the experiment. Mice were identified as diabetic on the basis of blood glucose levels (higher than 16 mM at least 4 days after alloxan treatment). Animals were divided into subgroups as required by the experiment (control, control+lutein, diabetic, diabetic+lutein, diabetic+insulin, diabetic+insulin+lutein). […] Insulin treated animals were injected daily with 500 mU/g body weight since day 4 until the end of the experiment. Mice were killed by cervical dislocation on day 14, and hippocampus and retina were removed and homogenized in pre-chilled 0.2 M potassium phosphate buffer, pH 7.0. These homogenates were used to assay protein, GPx activity and MDA and GSH concentrations. […] Glycated hemoglobin was determined in blood samples obtained by heart puncture immediately before killing the animals.

For data set [4], the system named is GPx activity. The data set is described as follows: GPx activity in eye and hippocampus homogenate of diabetic mice. It is filed as in vivo. The protocol:
Male albino mice were used throughout the study, housed in a environmentally regulated room on a dark-light cycle of 12 hours with free access to food and water. Principles of laboratory animal care (NIH publication no. 85-23, revised 1985) were followed, as well as specific Spanish regulations. Animals were made diabetic with a single subcutaneous injection of 200 mg alloxan/kg body weight (66 mg/ml) in 0.1 M citrate buffer, pH 4.5, at day 0 of the experiment. Control mice were injected with the same volume of vehicle also at day 0 of the experiment. Mice were identified as diabetic on the basis of blood glucose levels (higher than 16 mM at least 4 days after alloxan treatment). Animals were divided into subgroups as required by the experiment (control, control+lutein, diabetic, diabetic+lutein, diabetic+insulin, diabetic+insulin+lutein). […] Insulin treated animals were injected daily with 500 mU/g body weight since day 4 until the end of the experiment. Mice were killed by cervical dislocation on day 14, and hippocampus and retina were removed and homogenized in pre-chilled 0.2 M potassium phosphate buffer, pH 7.0. These homogenates were used to assay protein, GPx activity and MDA and GSH concentrations. Samples were kept frozen (−80° C.) until biochemical assays were performed. Blood was taken from the tail vein daily to assay blood glucose levels. Glycated hemoglobin was determined in blood samples obtained by heart puncture immediately before killing the animals. GPx activity was assayed as reported by Lawrence et al. (1978) towards hydrogen peroxide. The disappearance of NADPH was followed spectrophotometrically at 340 nm. The reaction mixture consisted of 240 mU/ml of glutathione disulfide reductase, 1 mM GSH, 0.15 mM NADPH in 0.1 M potassium phosphate buffer, pH 7.0, containing 1 mM EDTA and 1 mM sodium azide; 50 μl sample were added to this mixture and allowed to equilibrate at 37° C. for 3 min. reaction was started by the addition of 1.5 mM hydrogen peroxide to adjust the final volume of the assay mixture to 1 ml.

Data set [5] deals with diabetic rodents. The following applies: insulin treatment from the onset of diabetes, Biessels et al 1998; cited from earlier work.
The test system of data set [6] is GSH. The data set is described as follows: GSH content in hippocampus homogenate of diabetic mice. Format: in vivo. Particulars: lutein 0.2 mg/kg p.o. or insulin 500 mU/g s.c. on days 4-13. The protocol:
(§1) Male albino mice were used throughout the study, housed in a environmentally regulated room on a dark-light cycle of 12 hours with free access to food and water. Principles of laboratory animal care (NIH publication no. 85-23, revised 1985) were followed, as well as specific Spanish regulations. Animals were made diabetic with a single subcutaneous injection of 200 mg alloxan/kg body weight (66 mg/ml) in 0.1 M citrate buffer, pH 4.5, at day 0 of the experiment. Control mice were injected with the same volume of vehicle also at day 0 of the experiment.
Mice were identified as diabetic on the basis of blood glucose levels (higher than 16 mM at least 4 days after alloxan treatment). Animals were divided into subgroups as required by the experiment (control, control+lutein, diabetic, diabetic+lutein, diabetic+insulin, diabetic+insulin+lutein). Lutein was administered daily at a dose of 0.2 mg/kg p.o since day 4 after alloxan or citrate buffer injection until the end of the experiment. […] Glycated hemoglobin was determined in blood samples obtained by heart puncture immediately before killing the animals.
The GSH content of eye homogenate was quatitated by the method of Reed et al. (Reed et al., 1980). […] These products are quickly separated by HPLC which allows the quantification of nanomolars levels of GSH.

Data set [7] deals with MDA, a lipid peroxidation product. The data set is described as follows: MDA concentration by liquid chromatography in serum, eye and hippocampus of diabetic mice. Format: in vivo. The protocol: as §1
Mice were identified as diabetic on the basis of blood glucose levels (higher than 16 mM at least 4 days after alloxan treatment). Animals were divided into subgroups as required by the experiment (control, control+lutein, diabetic, diabetic+lutein, diabetic+insulin, diabetic+insulin+lutein). […] Insulin treated animals were injected daily with 500 mU/g body weight since day 4 until the end of the experiment. Mice were killed by cervical dislocation on day 14, and hippocampus and retina were removed and homogenized in pre-chilled 0.2 M potassium phosphate buffer, pH 7.0. These homogenates were used to assay protein, GPx activity and MDA and GSH concentrations. Samples were kept frozen (−80° C.) until biochemical assays were performed. Blood was taken from the tail vein daily to assay blood glucose levels. Glycated hemoglobin was determined in blood samples obtained by heart puncture immediately before killing the animals.
MDA, a lipid peroxidation product, concentration was measured by liquid chromatography according to a modification of the method of Richard et al. (1992) as previously described (Romero et al., 1998). Briefly, 0.1 ml of sample (or standard solutions prepared daily from 1,1,3,3-tetramethoxypropane) and 0.75 ml of working solution (thiobarbituric acid 0.37% and perchloric acid 6.4%; 2/1, v/v) were mixed and heated to 95° C. for 1 h. After cooling (10 min in ice water bath), the flocculent precipitate was removed by centrifugation at 3,200×g for 10 min. The supernatant was neutralized and filtered (0.22 μm) prior to injection on an ODS column 5 μm column (250×4.6 mm). Mobile phase consisted in 50 mM phosphate buffer (pH 6.0): methanol (58:42, v/v). Isocratic separation was performed with 1.0 ml/min flow (HPLC System 325, Kontron) and detection at 532 nm (UV/VIS HPLC Detector 332, Kontron). Calibration curves were run daily.

Where [8] appears, read: lutein 100 mg/kg p.o. or insulin 500 mU/g body weight s.c. on days 4-13.

Turning to IGF-I, the “cognition-related performance in the water maze” value in data set [1] is “prevent loss of cognition-related performance”.

As to `C[C@]12CC[C@@H]3c4ccc(O)cc4CC[C@H]3[C@@H]1CC[C@@H]2O` [17beta-oestradiol], the brain cell proliferation result in data set [2] was “restored”.

insulin [reference compound]: the “ERG amplitude (mostly b-wave)” value in data set [3] is “partially reversed”. Besides, in data set [4] (eye homogenate without lens, lutein 100 mg/kg p.o. or insulin 500 mU/g s.c. on days 4-13), the “retinal GPx activity” value was “partially reversed”. Further, in data set [4] (lutein 0.2 mg/kg p.o. or insulin 500 mU/g s.c. on days 4-13), the “GPx activity in hippocampus homogenate” value was “restored”. Besides, the “learning impairment in Morris water maze” value in data set [5] is listed as “can prevent this learning impairment”. For the same compound, in data set [6], the “GSH content in hippocampus homogenate” value is listed as “restored”. The “MDA levels in hippocampus” value in data set [7] (lutein 0.2 mg/kg p.o. or insulin 500 mU/g body weight s.c. on days 4-13) was “restored; also recorded: able to prevent this effect”. For the same compound, in data set [7] (setting [8]), the “MDA levels in ocular tissue” value was “restored; also recorded: able to prevent this effect” and the “MDA levels in serum” value is “restored”.
